Assay: Cytotoxicity, K562 cell growth inhibition (Cell Counting Kit-8 / WST-8)
Type: cell-based
Conditions: human; K562 cells; 6-48 hrs incubation; WST-8 absorbance at 450 nm; concentration inhibiting the cell growth by 50%
Protocol: K562 cells (American Type Culture Collection) were cultured in a culture medium containing 10% (v/v) fetal calf serum (FCS) (manufactures by Sigma) to logarithmic phase. The cells were seeded in 96-well microtiter plate at a density of 5000 cells/well in 100 μL cell culture medium and incubated at 37° C. and 5% CO2 in a humidified incubator overnight. The test compounds of various concentrations were added in a well at 10 fold concentration in 1/10 volume of medium without FCS. After 6-48 hrs incubation at 37° C. in the CO2 incubator, 10 μL solution of the viable cell counting reagent, Cell counting Kit-8 (5 mmol/L WST-8, 0.2 mmol/L 1-Methoxy PMS, 150 mmol/L NaCl) (manufactured by Dojindo) was added to each well, and reacted for 1 to 4 hours in the CO2 incubator. After the incubation, an absorbance of formazan, generated by reduction of WST-8 was determined at 450 nm using a microplate reader.
The assay readout is correlated with the viable cell numbers. Small values correspond to high inhibition and larger values to low inhibition of the cell growth. To determine IC50 values (i.e. the concentration inhibiting the cell growth by 50%) of the compounds of formula II, IV and V, several assays were made with a range of concentrations chosen empirically to give low, high and intermediate inhibition of the growth and determined using the curve fitting software.
IC50 values can be converted logarithmically to pIC50 values (−log IC50), in which higher values indicate exponentially greater potency. The IC50 value is not an absolute value but depends on experimental conditions e.g. concentrations employed.

SMILES | IC50 [µM]
O=C(OCc1ccccc1)C1=CC(c2ccccc2)CC(O)(C(=O)OCc2ccccc2)O1 (stereo not drawn) | 149
CCOC(=O)C1=CC(C2CCCCC2)CC(O)(C(=O)OCC)O1 (stereo not drawn) | 58
CCOC(=O)C1=CC(c2ccc(Br)cc2)CC(O)(C(=O)OCC)O1 (stereo not drawn) | 80
COC(=O)C1=CC(c2ccc([N+](=O)[O-])cc2)CC(O)(C(=O)OCc2ccccc2)O1 (stereo not drawn) | 81
CCOC(=O)C1=CC(c2ccc([N+](=O)[O-])cc2)CC(Nc2ccc(OC)cc2)(C(=O)OCC)O1 (stereo not drawn) | 12
CCOC(=O)C1=CC(c2ccc([N+](=O)[O-])cc2)CC(F)(C(=O)OCC)O1 (stereo not drawn) | 11
CCOC(=O)C1=CC(c2ccc(Cl)cc2)CC(F)(C(=O)OCC)O1 (stereo not drawn) | 52
CCOC(=O)C1=CC(c2ccc(Br)cc2)CC(F)(C(=O)OCC)O1 (stereo not drawn) | 53
CCOC(=O)C1=CC(c2ccco2)CC(F)(C(=O)OCC)O1 (stereo not drawn) | 135
CCOC(=O)C1=CC(c2ccc([N+](=O)[O-])cc2)CC(C(=O)OCC)=NN1 (stereo not drawn) | 148
O=C(OCc1ccccc1)[C@]1(O)C[C@H](c2ccccc2)C[C@](O)(C(=O)OCc2ccccc2)[C@H]1[N+](=O)[O-] | 54
COC(=O)[C@@]1(O)C[C@@H](c2ccc([N+](=O)[O-])cc2)C[C@@](O)(C(=O)OCc2ccccc2)[C@@H]1[N+](=O)[O-] | 90
CCOC(=O)[C@]1(O)C[C@H](c2ccc(C(F)(F)F)cc2)C[C@](O)(C(=O)OCC)[C@H]1[N+](=O)[O-] | 144
CCOC(=O)[C@]1(O)C[C@H](c2ccc(Br)cc2)C[C@](O)(C(=O)OCC)[C@H]1[N+](=O)[O-] | 144
CCOC(=O)[C@]1(O)C[C@H](C2CCCCC2)C[C@](O)(C(=O)OCC)[C@H]1[N+](=O)[O-] | 105
